Measurements taken from patent US20250099512A1, “USE OF BACTEROIDES FRAGILIS IN IMPROVEMENT AND TREATMENT OF DIARRHEA” (priority 2022, published 2025).
Where a name gives a salt, the structure may show the parent alone.

How the values were obtained:
[1] = tested on: Cryptosporidium cuniculus; assay: Effect on diarrhea in rabbits infected with Cryptosporidium cuniculus, oocysts in stools (Example 12); format: in vivo, New Zealand white rabbits
Source text: A parasite-associated diarrhea model was constructed by intragastric administration of Cryptosporidium cuniculus oocysts (extracted from a single positive stool sample from a rabbit farm in Jilin) in New Zealand white rabbits. Subsequently, the Bacteroides fragilis live bacteria solution, inactivated bacteria powder and lysate solution (prepared in Example 2) were each used for treatment. The therapeutic effects of the Bacteroides fragilis live bacteria solution, inactivated bacteria powder and lysate solution were observed.
New Zealand white rabbits aged 35 days were selected and randomly divided into the following 6 groups: a blank group (group 1), a model group (group 2), a positive control group (nitazoxanide) (group 3), a Bacteroides fragilis inactivated bacteria powder group (group 4), a Bacteroides fragilis lysate solution group (group 5), and a Bacteroides fragilis live bacteria solution group (group 6), with 8 rabbits in each group. The New Zealand white rabbits in groups 2 to 6 were intragastrically inoculated with 1.5×10^4 Cryptosporidium cuniculus oocysts, and the blank group was intragastrically given normal saline. […] The stools were collected to prepare a stool suspension, and structures with oocysts were observed under a microscope, indicating successful modeling. Therefore, treatment could be carried out. The blank group was given normal saline, and the treatment groups were subjected to drug administration. The treatment was carried out twice daily for 7 consecutive days. The New Zealand white rabbits were observed daily for diarrhea condition. On day 1 of the treatment and at the end of the treatment, the stool samples were collected, and the number of oocysts was observed under a microscope.

[2] = tested on: mice with Escherichia coli-induced diarrhea; assay: Effect on mice with Escherichia coli-induced diarrhea (Example 6); format: in vivo; details: positive control, berberine hydrochloride 0.01 g/mL i.g. QD*7 days; Escherichia coli i.p. model
Protocol: Escherichia coli preserved on a slant was inoculated on a nutrient agar plate and cultured at 37° C. for 24 h. Several colonies were then picked, inoculated into MH broth, followed by another 24 hours of culture at 37° C. The culture was then diluted with sterilized normal saline and subjected to turbidity adjustment using a 0.5 Mcfarland turbidimetric tube, thus achieving a bacterial content of 3×10^8 CFU/mL.
Mice weighing about 20 g were selected, and each mouse was intraperitoneally injected with 0.2 mL of the Escherichia coli bacteria solution with a bacterial content of 3×10^8 CFU/mL for diarrhea induction. A positive control group received a 0.01 g/mL aqueous berberine hydrochloride solution administered intragastrically. The experimental grouping and procedures were the same as in Example 3. The mice were continuously observed for 5 h, and the diarrhea indices of the mice were recorded.

Row | SMILES | Number of oocysts in stools (×10^6 oocysts/rabbit, mean ± SD) ([1]; D 1 of administration, i.g. Bid*7 days, nitazoxanide 10 mg/kg, Bacteroides fragilis 1 × 10^8 cells/mL) | Number of oocysts in stools (×10^6 oocysts/rabbit, mean ± SD) ([1]; D 2 of administration, doses as Table 23) | Number of oocysts in stools (×10^6 oocysts/rabbit, mean ± SD) ([1]; D 3 of administration, doses as Table 23) | Number of oocysts in stools (×10^6 oocysts/rabbit, mean ± SD) ([1]; D 4 of administration, doses as Table 23) | Number of oocysts in stools (×10^6 oocysts/rabbit, mean ± SD) ([1]; D 5 of administration, doses as Table 23) | Number of oocysts in stools (×10^6 oocysts/rabbit, mean ± SD) ([1]; D 6 of administration, doses as Table 23) | Number of oocysts in stools (×10^6 oocysts/rabbit, mean ± SD) ([1]; D 7 of administration, doses as Table 23) | total number of oocysts in the stools of each New Zealand rabbit during the treatment period ([1]; FIG. 5, P<0.0001, doses as Table 23) | Diarrhea index [2]
1 | CC(=O)Oc1ccccc1C(=O)Nc1ncc([N+](=O)[O-])s1 [nitazoxanide] | 1.8 ± 0.6 ×10^6 oocysts/rabbit | 3.2 ± 1.5 ×10^6 oocysts/rabbit | 2.8 ± 0.9 ×10^6 oocysts/rabbit | 2.2 ± 0.2 ×10^6 oocysts/rabbit | 1.5 ± 1.1 ×10^6 oocysts/rabbit | 1.3 ± 0.1 ×10^6 oocysts/rabbit | 0.6 ± 0.2 ×10^6 oocysts/rabbit | significantly lower than that in the model group | 
2 | COc1ccc2cc3[n+](cc2c1OC)CCc1cc2c(cc1-3)OCO2 [berberine hydrochloride] |  |  |  |  |  |  |  |  | 1.25 ± 0.13
